Literature values, collected in US20100221356A1, “PHARMACEUTICAL COMPOSITION FOR ONCE A DAY ADMINISTRATION OF TROSPIUM CHLORIDE” (SUPERNUS PHARMACEUTICALS, INC., priority 2003, published 2010).

What was measured:
[1] = water
[2] = 40 mg immediate release dose once daily compared to 20 mg given twice daily

## O=C(O[C@H]1C[C@H]2CC[C@@H](C1)[N+]21CCCC1)C(O)(c1ccccc1)c1ccccc1 [Trospium chloride]
oral
  oral bioavailability: approximately 10%
oral, high-fat food
  oral bioavailability with the intake of high-fat food: significantly reduced
Orally administered
  time to maximum blood level: 5 to 6 h
[1]
  saturation solubility: 500 mg/mL
[2]
  overall incidence of adverse events: higher overall incidence of adverse events
